Results taken from patent publication US5063225A, “Benzothiazepines” (Roussel Uclaf, priority 1989, dated 1991).
Where a name gives a salt, the structure may show the parent alone. Read-outs that look alike come from different tables or passages of the source.

Assays:
mouse = experiment: Study of the acute toxicity; format: in vivo; conditions: single administration
Description: 4) Study of the Acute Toxicity
The lethal doses LD of the various compounds under test were evaluated after a single administration intraperitoneally or orally to a mouse.

[1] = system: broncho-constriction induced by serotonin; experiment: Anti-serotoninergic activity: broncho-constriction in a guinea-pig induced by serotonin; format: in vivo; conditions: 1 mg/kg injected via jugular vein one minute before serotonin (3 to 5 micrograms/kg IV)
Description: 3) Test for Anti-Serotoninergic Activity Broncho-constriction in a guinea-pig induced by serotonin. The pulmonary resistance to insufflation was measured by the technique of "overflow" according to KONZETT et al [Arch. Ex. Pathol. Pharmakol, 1940, Vol. 195, p. 71]. The guinea-pigs were anaesthetized with urethane and the jugular vein was catherized to inject the products, and the trachea was catheterized to insert artificial ventilation. Broncho-constriction was induced by a dose of 3 to 5 micrograms/kg of serotonin injected intravenously and the antagonists were injected one minute before the induction of the broncho-spasm. It can be noted from the results of the table below that the products of the present Application have a strong anti-serontoninergic activity.

[2] = system: blood-platelets (rabbit PRP); experiment: Blood-platelet aggregation, in vitro, on plasma rich in blood-platelets (PRP); format: cell-based; conditions: Oryctolagus cuniculus, 2 min, 2 minutes incubation, read-out: IC50 (concentration inhibiting the aggregation by 50%)
Excerpt: 2) Test for the Activity of Anti-Aggregation of Blood-Platelets. Blood-Platelet Aggregation, In Vitro, on Plasma Rich in Blood-Platelets (PRP)
Measurement of blood-platelet aggregation was made by the turbidimetric method of Born et al 1963, J. Physiol., Vol. 168, p. 178. Rabbit's blood was removed on Na citrate at 3.2% by cardiac puncture and the plasma rich in blood-platelets was obtained by centrifuging and adjustment of the number of blood-platelets to 300,000 per microliter. The aggregation was induced by collagen (40 micrograms per ml of PRP) or PAF acether (0.05 micromoles per liter of PRP). The compounds under test were incubated at different concentrations in the PRP 2 minutes before the aggregating agent. The results were expressed in IC50 (concentration inhibiting the aggregation by 50% relative to the control curves).

[3] = system: ventricular extrasystoles initiated by aconitine in rats; experiment: Anti-arhythmic action in the rat (aconitine-induced ventricular extrasystoles); format: in vivo; conditions: relative to control animals
Description: 1) Anti-arhythmic action in the rat
Male rats weighing 300-350 g, anaesthetized by intraperitoneal route using 1.20 g/kg of urethane, were tracheotomized and subjected to artificial respiration (40-50 insufflations of 3 ml/minute). Needles were implanted subcutaneously to record the electro-cardiogram of the rats on the signal in the DII derivation. The products under test were administered by intravenous route or by oral route. After five minutes in the case of administration intravenously and one hour in the case of oral administration, the jugular vein of the rats was perfused with 10 micrograms/min. under 0.2 ml of an aconitine solution. The time taken for the first ventricular extrasystoles to appear was noted and the amount of aconitine perfused was calculated, then expressed as a function of the body weight of the animal.
The percentage of increase of the aconitine dose necessary to initiate the ventricular extrasystoles after treatment was calculated relative to the control animals.

[4] = induction by PAF-ACETHER (0.05 micromoles per liter of PRP)
[5] = induction by collagen (40 micrograms per ml of PRP)
[6] = IV, 5 mg/kg, five minutes before aconitine
[7] = oral (O), 25 mg/kg, one hour before aconitine

Compound | LD0 (maximum dose which did not cause any deaths over 8 days) (mouse; IP) [mg/kg] | LD0 (maximum dose which did not cause any deaths over 8 days) (mouse; oral (O)) [mg/kg] | Percentage of inhibition of the broncho-constriction [1] [%] | IC50 [2, 4] [µM] | IC50 [2, 5] [µM] | Percentage of increase of the aconitine dose for initiating the extrasystoles [3, 6] [%] | Percentage of increase of the aconitine dose for initiating the extrasystoles [3, 7] [%]
COc1ccccc1C1CSc2ccccc2N(CCN(C)C)C1=O.Cl (stereo not shown) [Example 12, 2,3-dihydro-5-[2-(dimethylamino)-ethyl]-3-(2-methoxy-phenyl)-1,5-benzothiazepin-4(5H)-one hydrochloride] | 100 | > 200 | 64 | 9 | 56 |  | 
COc1ccc(C2CSc3ccccc3N(CCCN(C)C)C2=O)cc1 (stereo not shown) [Example 6, 2,3-dihydro-5-[3-(dimethylamino)-propyl]-3-(4-methoxyphenyl)-1,5-benzothiazepin-4(5H)-one (E)-butenedioate] | 100 | 100 |  |  |  | 142 | > 188
CN(C)CCN1C(=O)C(c2ccc(Cl)cc2)CSc2ccccc21.Cl (stereo not shown) [Example 11, 3-(4-chloro-phenyl)-2,3-dihydro-5-[2-(dimethylamino)-ethyl]-1,5-benzothiazepin-4(5H)-one hydrochloride] | 80 | 100 | 82 | 40 | 8 | 32 | 135
CCN(CC)CCN1C(=O)C(c2ccc(OC)cc2)CSc2ccccc21.O=C(O)C(=O)O (stereo not shown) [Example 5, 5-[2-(diethylamino)-ethyl]-2,3-dihydro-3-(4-methoxyphenyl)-1,5-benzothiazepin-4(5H)-one ethanedioate] |  |  | 87 |  |  |  | 
COc1ccc(C2CSc3ccccc3N(CCN(C)C)C2=O)cc1 (stereo not shown) [Example 13, 2,3-dihydro-5-8 2-(dimethylamino)-ethyl]-3-(4-methoxy phenyl)-1,5-benzothiazepin-4(5H)-one (E)-2-butenedioate] | 80 | > 200 | 87 |  |  | 24 | 35
COc1ccc(C2CSc3ccccc3N(CCN3CCN(C)CC3)C2=O)cc1 (stereo not shown) [Example 7, 2,3-dihydro-3-(4-methoxyphenyl)-5-[2-(4-methyl-1-piperazinyl)-ethyl]-1,5-benzothiazepin-4(5H)-one dichlorhydrate] | 100 | 100 |  |  |  | 25 | 129
COc1ccc(C2CSc3ccccc3N(CCN3CCCC3)C2=O)cc1 (stereo not shown) [Example 1, 2,3-dihydro-3-(4-methoxy-phenyl)-5-[2-(1-pyrrolidinyl)-ethyl]-1,5-benzothiazepin-4(5H)-one (Z)-2-butenedioate] |  |  | 79 | 78 | 74 |  | 
COc1ccc(C2CSc3ccccc3N(CCN(C(C)C)C(C)C)C2=O)cc1 (racemic) [Example 9, (±)-5-[2-[[bis(1-methylethyl)]-amino]-ethyl]-2,3-dihydro-3-(4-methoxyphenyl)-1,5-benzothiazepin-4(5H)-one hydrochloride] |  |  |  | 58 | 66 |  | 
